Measurements published in patent US20230416248A1, “COMPOUNDS AND USES THEREOF” (Foghorn Therapeutics Inc., priority 2020, published 2023).

Biological target: T1, BRM (Homo sapiens, UniProt P51531)
T1 construct: made in house; host or cells: High Five insect cells
Assay: ATPase catalytic activity of BRM, ADP-Glo in vitro biochemical assay
Details: for IC50: 30 nM BRM, 400 μM ATP
Procedure: The ATPase catalytic activity of BRM or BRG-1 was measured by an in vitro biochemical assay using ADP-Glo™ (Promega, V9102). The ADP-Glo™ kinase assay is performed in two steps once the reaction is complete. The first step is to deplete any unconsumed ATP in the reaction. The second step is to convert the reaction product ADP to ATP, which will be utilized by the luciferase to generate luminesce and be detected by a luminescence reader, such as Envision.
The assay reaction mixture ([…]) contains 30 nM of BRM or BRG-1, 20 nM salmon sperm DNA (from Invitrogen, UfraPure™ Salmon Sperm DNA Solution, cat #15632011), and 400 μM of ATP in the ATPase assay buffer, which comprises of 20 mM Tris, pH 8, 20 mM MgCl2, 50 mM NaCl, 0.1% Tween-20, and 1 mM fresh DTT (Piercer™ DTT (Dithiothreitol), cat #20290). The reaction is initiated by the addition of the 2.5 μL ATPase solution to 2.5 μL ATP/DNA solution on low volume white Proxiplate-384 plus plate (PerkinElmer, cat #6008280) and incubates at room temperature for 1 hour. Then, following addition of 5 μL of ADP-Glo™ Reagent provided in the kit, the reaction incubates at room temperature for 40 minutes. Then, 10 μL of Kinase Detection Reagent provided in the kit is added to convert ADP to ATP, and the reaction incubates at room temperature for 60 minutes. Finally, luminescence measurement is collected with a plate-reading luminometer, such as Envision.

[1] = ATPase catalytic activity, ADP-Glo

T1 sequence (P51531 whole entry): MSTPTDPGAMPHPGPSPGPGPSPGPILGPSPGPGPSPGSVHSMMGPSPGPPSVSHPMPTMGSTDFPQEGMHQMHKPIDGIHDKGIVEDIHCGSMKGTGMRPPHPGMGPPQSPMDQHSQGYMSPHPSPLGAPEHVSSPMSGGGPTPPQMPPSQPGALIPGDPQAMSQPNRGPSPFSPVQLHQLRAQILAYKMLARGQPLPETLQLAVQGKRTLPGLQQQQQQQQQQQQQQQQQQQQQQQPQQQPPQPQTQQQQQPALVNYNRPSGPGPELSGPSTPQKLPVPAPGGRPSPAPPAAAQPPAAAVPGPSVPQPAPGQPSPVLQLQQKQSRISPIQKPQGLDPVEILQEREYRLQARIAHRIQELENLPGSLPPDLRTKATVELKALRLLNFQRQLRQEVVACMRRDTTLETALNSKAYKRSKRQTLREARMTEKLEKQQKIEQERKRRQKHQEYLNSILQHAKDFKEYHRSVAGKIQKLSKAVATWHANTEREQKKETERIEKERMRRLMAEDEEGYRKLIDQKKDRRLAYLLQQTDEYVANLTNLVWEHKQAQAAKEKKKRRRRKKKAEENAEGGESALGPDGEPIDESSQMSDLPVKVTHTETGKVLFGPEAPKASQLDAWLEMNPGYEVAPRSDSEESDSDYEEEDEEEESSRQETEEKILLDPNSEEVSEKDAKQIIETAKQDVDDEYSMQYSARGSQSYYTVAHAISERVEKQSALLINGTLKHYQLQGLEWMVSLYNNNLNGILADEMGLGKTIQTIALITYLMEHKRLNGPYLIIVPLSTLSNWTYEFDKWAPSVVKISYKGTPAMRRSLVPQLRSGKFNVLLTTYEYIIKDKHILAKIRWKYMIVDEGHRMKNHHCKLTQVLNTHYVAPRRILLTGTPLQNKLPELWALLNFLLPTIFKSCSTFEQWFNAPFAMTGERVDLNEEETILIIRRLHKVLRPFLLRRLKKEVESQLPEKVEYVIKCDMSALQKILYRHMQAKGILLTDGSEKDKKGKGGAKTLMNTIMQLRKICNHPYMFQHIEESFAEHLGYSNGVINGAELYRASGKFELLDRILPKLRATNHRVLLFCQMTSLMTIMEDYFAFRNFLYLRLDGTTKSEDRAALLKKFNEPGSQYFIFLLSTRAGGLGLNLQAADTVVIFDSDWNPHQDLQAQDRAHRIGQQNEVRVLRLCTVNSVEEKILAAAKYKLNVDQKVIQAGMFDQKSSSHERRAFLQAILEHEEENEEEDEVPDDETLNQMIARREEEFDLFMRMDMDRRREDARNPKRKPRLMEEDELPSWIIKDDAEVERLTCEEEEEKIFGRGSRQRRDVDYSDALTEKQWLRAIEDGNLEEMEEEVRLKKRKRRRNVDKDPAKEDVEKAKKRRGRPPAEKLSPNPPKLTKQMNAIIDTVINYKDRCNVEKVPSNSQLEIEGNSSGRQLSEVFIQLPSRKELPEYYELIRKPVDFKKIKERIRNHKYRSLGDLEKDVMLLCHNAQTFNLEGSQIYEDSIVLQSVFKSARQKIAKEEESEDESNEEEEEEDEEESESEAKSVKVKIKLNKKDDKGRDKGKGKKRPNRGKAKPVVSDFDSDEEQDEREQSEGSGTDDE

| IC50 [1] [nM] | Ratio* (ratio of BRG1 IC50 to BRM IC50) | IC50 (ADP-Glo ATPase assay) [nM] | Ratio* (ratio BRG1 IC50 / BRM IC50) | SMILES |
| --- | --- | --- | --- | --- |
| 843 | 5.93 | – | – | CN1CC[C@@H](Oc2cccc(-c3ccc4cnc(CNC(=O)c5ccc6c(c5)S(=O)(=O)CCOC6)cc4n3)n2)C1 [Compound 328] |
| 1350 | 3.71 | – | – | COc1c(-c2ccc3cnc(CNC(=O)c4ccc5c(c4)S(=O)(=O)CCOC5)cc3n2)cccc1C(F)F [Compound 343] |
| – | 1.00 | – | – | C[C@@H]1CN(c2cccc(-c3ccc4cnc(CNC(=O)c5cc(C6(C)CC6)c6c(c5)S(=O)(=O)CCOC6)cc4n3)n2)C[C@H](C)O1 [Compound 351] |
| 3310 | 1.51 | – | – | O=C(NCc1cc2nc(N3C(=O)Cc4ccccc43)ccc2cn1)c1ccc2c(c1)S(=O)(=O)CCOC2 [Compound 356] |
| – | 1.00 | – | – | CC[C@@H]1COCc2ccc(C(=O)NCc3cc4nc(-c5cccc(N6C[C@@H](C)O[C@@H](C)C6)n5)ccc4cn3)cc2S1(=O)=O [Compound 359] |
| 974 | 5.14 | – | – | CC[C@H]1COCc2ccc(C(=O)NCc3cc4nc(-c5cccc(N6C[C@@H](C)O[C@@H](C)C6)n5)ccc4cn3)cc2S1(=O)=O [Compound 360] |
| 206 | 24.25 | – | – | C[C@@H]1CN(c2cccc(-c3ccc4cnc(CNC(=O)c5ccc6c(c5)S(=O)(=O)[C@@H](C)CC6)cc4n3)n2)C[C@H](C)O1 [Compound 363] |
| – | 1.00 | – | – | COc1ccc(C(C)(F)F)cc1-c1ccc2cnc(CNC(=O)c3ccc4c(c3)S(=O)(=O)CCOC4)cc2n1 [Compound 368] |
| 196 | 25.45 | – | – | C[C@@H]1CN(c2cccc(-c3ccc4cnc(CNC(=O)c5cccc(S(=O)(=O)C6CC6)c5)cc4n3)n2)C[C@H](C)O1 [Compound 371] |
| 1320 | 3.79 | – | – | O=C(NCc1cc2nc(-n3cccc(N4CCOCC4)c3=O)ccc2cn1)c1ccc2c(c1)S(=O)(=O)CCOC2 [Compound 401] |
| 253 | 19.79 | – | – | CCOc1cc(C)cc(-c2ccc3cnc(CNC(=O)c4ccc5c(c4)S(=O)(=O)[C@@H](C)COC5)cc3n2)n1 [Compound 417] |
| 1500 | 3.34 | – | – | C[C@@H]1CN(c2cccc(-c3ccc4cnc(CNC(=O)c5cc(Cl)c6c(c5)S(=O)(=O)[C@H](C)COC6)cc4n3)n2)C[C@H](C)O1 [Compound 432] |
| – | 1.00 | – | – | C[C@@H]1COCc2ncc(C(=O)NCc3cc4nc(-c5cccc(C6CC6)n5)ccc4cn3)cc2S1(=O)=O [Compound 455] |
| 192 | 25.98 | – | – | C[C@@H]1CN(c2cccc(-c3ccc4cnc(CNC(=O)c5ccc6c(c5)S(=O)(=O)CCO[C@H]6C5CC5)cc4n3)n2)C[C@H](C)O1 [Compound 459] |
| 1590 | 3.15 | – | – | Cc1cc(C(=O)NCc2cc3nc(-c4cccc(N5C[C@@H](C)O[C@@H](C)C5)n4)ccc3cn2)cc2c1OCC[C@@H](C)S2(=O)=O [Compound 461] |
| 1720 | 2.92 | – | – | Cc1cc(C(=O)NCc2cc3nc(-c4cccc(N5C[C@@H](C)O[C@@H](C)C5)n4)ccc3cn2)cc2c1COC[C@@H](C)S2(=O)=O [Compound 462] |
| 1160 | 4.29 | – | – | C[C@@H]1CN(c2cccc(-c3ccc4cnc(CNC(=O)c5cc(Cl)c6c(c5)S(=O)(=O)[C@H](C)CCO6)cc4n3)n2)C[C@H](C)O1 [Compound 486] |
| 539 | 9.28 | – | – | C[C@@H]1CCS(=O)(=O)c2cc(C(=O)NCc3cc4nc(-c5cccc(N6C[C@@H](C)O[C@@H](C)C6)n5)ccc4cn3)cc(Cl)c2O1 [Compound 505] |
| 429 | 11.66 | – | – | C[C@@H]1CN(c2cccc(-c3ccc4cnc(CNC(=O)c5ccc6c(c5)S(=O)(=O)[C@@H](C)CO[C@@H]6C)cc4n3)n2)C[C@H](C)O1 [Compound 517] |
| 4560 | 1.10 | – | – | C[C@@H]1CN(c2cccc(-c3ccc4cnc(CNC(=O)c5ccc6c(c5)S(=O)(=O)[C@H](C)CO[C@H]6C)cc4n3)n2)C[C@H](C)O1 [Compound 518] |
| – | 28.30 | – | – | C[C@@H]1CN(c2cccc(-c3ccc4cnc(CNC(=O)c5ccc6c(c5)S(=O)(=O)C5(CC6)CC5)cc4n3)n2)C[C@H](C)O1 [Compound 531] |
| 637 | 7.84 | – | – | CC1CN(c2cccc(-c3ccc4cnc(CNC(=O)c5ccc6c(c5)S(=O)(=O)C(C)COC6C)cc4n3)n2)CC(C)O1 (stereo not drawn) [Compound 535] |
| 131 | 38.11 | – | – | Cc1cc(C(=O)NCc2cc3nc(-c4cccc(N5C[C@@H](C)O[C@@H](C)C5)n4)ccc3cn2)cc2c1O[C@H](C)CCS2(=O)=O [Compound 541] |
| 1820 | 2.75 | – | – | O=C(NCc1cc2nc(N3CCc4nccnc4C3)ccc2cn1)c1ccc2c(c1)S(=O)(=O)CCOC2 [Compound 546] |

| IC50 [1] [nM] | Ratio* (ratio of BRG1 IC50 to BRM IC50) | IC50 (ADP-Glo ATPase assay) [nM] | Ratio* (ratio BRG1 IC50 / BRM IC50) | SMILES |
| --- | --- | --- | --- | --- |
| 293 | 17.08 | – | – | C[C@@H]1CN(c2cccc(-c3ccc4cnc(CNC(=O)c5cc(Cl)c6c(c5)S(=O)(=O)CCO[C@H]6C)cc4n3)n2)C[C@H](C)O1 [Compound 547] |
| 1700 | 2.94 | – | – | CC1Cc2cccnc2N(c2ccc3cnc(CNC(=O)c4ccc5c(c4)S(=O)(=O)CCOC5)cc3n2)C1 (stereo not drawn) [Compound 556] |
| 3930 | 1.27 | – | – | C[C@@H]1CN(c2cccc(-c3ccc4cnc(CNC(=O)c5ccc6c(c5)S(=O)(=O)CCC(C)(C)O6)cc4n3)n2)C[C@H](C)O1 [Compound 559] |
| 498 | 10.04 | – | – | C[C@@H]1CN(c2cccc(-c3ccc4cnc(CNC(=O)c5ccc6c(c5)S(=O)(=O)[C@H](C)CN6C)cc4n3)n2)C[C@H](C)O1 [Compound 560] |
| 425 | 11.77 | – | – | CO[C@H](C)c1ccc2c(n1)N(c1ccc3cnc(CNC(=O)c4ccc5c(c4)S(=O)(=O)CCOC5)cc3n1)CCC2 [Compound 562] |
| – | 16.52 | – | – | O=C(NCc1cc2nc(N3CCCc4ccc(C(F)F)nc43)ccc2cn1)c1ccc2c(c1)S(=O)(=O)CCOC2 [Compound 563] |
| – | 6.87 | – | – | O=C(NCc1cc2nc(N3CCCc4ccc(C(F)F)nc43)ccc2cn1)c1ccc2c(c1)S(=O)(=O)CCOC2 [Compound 571] |
| – | 3.78 | – | – | CC1CN(c2cccc(-c3ccc4cnc(CNC(=O)c5cnc6c(c5)S(=O)(=O)CCC5CC65)cc4n3)n2)CC(C)O1 (stereo not drawn) [Compound 577] |
| – | 4.40 | – | – | CC1CN(c2cccc(-c3ccc4cnc(CNC(=O)c5cnc6c(c5)S(=O)(=O)CCC5CC65)cc4n3)n2)CC(C)O1 (stereo not drawn) [Compound 579] |
| 1240 | 4.05 | – | – | C[C@@H]1CN(c2cccc(-c3ccc4cnc(CNC(=O)c5ccc6c(c5)S(=O)(=O)CC[C@H](C(F)F)O6)cc4n3)n2)C[C@H](C)O1 [Compound 582] |
| 793 | 6.31 | – | – | CC[C@H]1CCS(=O)(=O)c2cc(C(=O)NCc3cc4nc(-c5cccc(N6C[C@@H](C)O[C@@H](C)C6)n5)ccc4cn3)ccc2O1 [Compound 584] |
| 681 | 7.34 | – | – | C[C@@H]1CN(c2cccc(-c3ccc4cnc(CNC(=O)c5cnc6c(c5)S(=O)(=O)[C@H](C)CC6)cc4n3)n2)C[C@H](C)O1 [Compound 596] |
| 1190 | 4.19 | – | – | C[C@@H]1CN(c2cccc(-c3ccc4cnc(CNC(=O)c5cc(C6CCC6)c6c(c5)S(=O)(=O)CCOC6)cc4n3)n2)C[C@H](C)O1 [Compound 631] |
| 2230 | 2.24 | – | – | COC1Cc2cccnc2N(c2ccc3cnc(CNC(=O)c4ccc5c(c4)S(=O)(=O)CCOC5)cc3n2)C1 (stereo not drawn) [Compound 633] |
| 673 | 7.43 | – | – | CO[C@@H](c1ccc2c(n1)N(c1ccc3cnc(CNC(=O)c4ccc5c(c4)S(=O)(=O)CCOC5)cc3n1)CCC2)C1CC1 [Compound 663] |
| 1750 | 2.86 | – | – | CO[C@H](c1ccc2c(n1)N(c1ccc3cnc(CNC(=O)c4ccc5c(c4)S(=O)(=O)CCOC5)cc3n1)CCC2)C1CC1 [Compound 664] |
| 4000 | 1.25 | – | – | O=C(NCc1cc2nc(-c3cccc4c3CN(C3COC3)CC4)ccc2cn1)c1ccc2c(c1)S(=O)(=O)CCOC2 [Compound 671] |
| 3780 | 1.32 | – | – | COCCN1CCc2cccc(-c3ccc4cnc(CNC(=O)c5ccc6c(c5)S(=O)(=O)CCOC6)cc4n3)c2C1 [Compound 674] |
| 884 | 5.66 | – | – | O=C(NCc1cc2nc(-c3cccc4c3CN(CC(F)F)CC4)ccc2cn1)c1ccc2c(c1)S(=O)(=O)CCOC2 [Compound 675] |
| 484 | 10.33 | – | – | C[C@@H]1CN(c2cccc(-c3ccc4cnc(CNC(=O)c5ccc6c(c5)S(=O)(=O)[C@H](C)CO6)cc4n3)n2)C[C@H](C)O1 [Compound 684] |
| 715 | 6.99 | – | – | O=C(NCc1cc2nc(-c3cccc4c3CN(C3CC3)CC4)ccc2cn1)c1ccc2c(c1)S(=O)(=O)CCOC2 [Compound 685] |
| – | – | 188 | 26.60 | CS(=O)(=O)c1cc(C(=O)NCc2cc3nc(N4CCCc5ccc(C6CC6)nc54)ccc3cn2)cnc1C(F)F [Compound 721] |
| – | – | – | 1.00 | O=C(NCc1cc2nc(C34CC3CCc3cccnc34)ccc2cn1)c1ccc2c(c1)S(=O)(=O)CCOC2 (stereo not drawn) [Compound 762] |
